Assay results as given in patent US9850227B2 (YUHAN CORPORATION, priority 2011, dated 2017).
Counter-ions that a name gives are not always drawn.

Biological target: T1, human 5-HT4(a) (Homo sapiens, UniProt Q13639)
T1 construct: host or cells: GeneBIAzer HTR4-CRE-bla CHO-K1 cells
Assay: Evaluation of agonistic activity in CHO-K1 cells expressing human 5-HT4(a) (GeneBIAzer HTR4-CRE-bla CHO-K1 cells, beta-lactamase fluorescence ratio, EC50 from 8 concentrations)
Format: cell-based
Procedure, shortened: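 HTR4-CRE-bla CHO-K1 cells (10^4 per well, overnight in 1% FBS medium) exposed to compound for 5 h, then beta-lactamase substrate 2 h in the dark. Fluorescence ratio at 465/535 nm after 410 nm excitation; EC50 by non-linear regression over 8 concentrations.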

T1 sequence (Q13639 1-387 isoform Q13639-2): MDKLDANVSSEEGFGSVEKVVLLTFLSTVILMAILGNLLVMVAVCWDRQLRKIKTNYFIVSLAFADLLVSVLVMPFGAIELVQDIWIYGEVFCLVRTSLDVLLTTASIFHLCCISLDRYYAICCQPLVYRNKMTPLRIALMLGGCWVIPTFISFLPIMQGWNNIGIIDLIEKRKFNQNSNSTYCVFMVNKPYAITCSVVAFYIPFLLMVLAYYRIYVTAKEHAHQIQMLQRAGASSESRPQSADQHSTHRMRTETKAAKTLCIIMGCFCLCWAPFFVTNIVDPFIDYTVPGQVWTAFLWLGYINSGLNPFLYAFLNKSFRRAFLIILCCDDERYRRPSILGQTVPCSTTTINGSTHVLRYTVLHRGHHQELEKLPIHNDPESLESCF

| SMILES | EC50 [nM] |
| --- | --- |
| CCCc1cc(N2CCC[C@@H](N)C2)nc(Nc2cccc(C#N)c2)n1 [Example 221, (R)-3-[4-(3-aminopiperidin-1-yl)-6-propylpyrimidin-2-ylamino]benzonitrile dihydrochloride] | 0.122 |
| CCCc1cc(N2CCCC(NC(C)=O)C2)nc(Nc2ccc(F)c(N)c2)n1 (centres unmarked) [Example 276, N-{1-[2-(3-amino-4-fluorophenylamino)-6-propylpyrimidin-4-yl]piperidin-3-yl}acetamide] | 0.018 |
| CCCc1cc(N2CCCCC2CCO)nc(Nc2ccc(F)c([N+](=O)[O-])c2)n1 (centres unmarked) [Example 142, 2-{1-[2-(4-fluoro-3-nitrophenylamino)-6-propylpyrimidin-4-yl]piperidin-2-yl}ethanol] | 0.3 |
| CCCc1cc(N2CCC[C@@H](NC(=O)CO)C2)nc(Nc2ccc(F)c(N)c2)n1 [Example 250, (R)—N-{1-[2-(3-amino-4-fluorophenylamino)-6-propylpyrimidin-4-yl]piperidin-3-yl}-2-hydroxyacetamide] | 0.027 |
| CCCc1cc(N2CCC[C@@H](NCC3CC3)C2)nc(Nc2cccc(C#N)c2)n1 [Example 224, (R)-3-{4-[3-(cyclopropylmethylamino)piperidin-1-yl]-6-propylpyrimidin-2-ylamino}benzonitrile] | 0.07 |
| CCCc1cc(N2CCNC[C@H]2C)nc(Nc2cccc([N+](=O)[O-])c2)n1 [Example 120] | 0.073 |
| CCCc1cc(N2CCC[C@H](NCCCSC)C2)nc(Nc2ccc(C)c(C#N)c2)n1 [Example 162, (S)-2-methyl-5-{4-[3-(3-methylthiopropylamino)piperidin-1-yl]-6-propylpyrimidin-2-ylamino}benzonitrile] | 0.043 |
| CCCc1cc(N2CCCCC2CCO)nc(Nc2ccc(F)c(C#N)c2)n1 (centres unmarked) [Example 178, 2-fluoro-5-{4-[2-(2-hydroxyethyl)piperidin-1-yl]-6-propylpyrimidin-2-ylamino}benzonitrile] | 0.082 |
| CCCc1cc(N2CCNC[C@H]2C)nc(Nc2ccc(N)c(C(F)(F)F)c2)n1 [Example 124, (R)-N^1-[4-(2-methylpiperazin-1-yl)-6-propylpyrimidin-2-yl]-3-(trifluoromethyl)benzene-1,4-diamine] | 0.028 |
| CCCc1cc(N2CCCCC2)nc(Nc2ccc3cc[nH]c3c2)n1 [Example 76, N-[4-(piperidin-1-yl)-6-propylpyrimidin-2-yl]-1H-indol-6-amine] | 0.061 |
| CCCCc1cc(N2CCC[C@@H](NC)C2)nc(Nc2ccc(F)c(C(F)(F)F)c2)n1 [Example 320, (R)-4-butyl-N-[4-fluoro-3-(trifluoromethyl)phenyl]-6-[3-(methylamino)piperidin-1-yl]pyrimidin-2-amine] | 0.018 |
| CCCc1cc(N2CCC[C@H](N)C2)nc(Nc2cccc([N+](=O)[O-])c2)n1 [Example 151, (S)-4-(3-aminopiperidin-1-yl)-N-(3-nitrophenyl)-6-propylpyrimidin-2-amine dihydrochloride] | 0.361 |
| CCCc1cc(N2CCCCC2CCO)nc(Nc2ccc(N)c(C(F)(F)F)c2)n1 (centres unmarked) [Example 175, 2-{1-[2-(4-amino-3-trifluoromethylphenylamino)-6-propylpyrimidin-4-yl]piperidin-2-yl}ethanol] | 0.035 |
| CCCc1cc(N2CCC[C@@H](N)C2)nc(Nc2ccc(N)c(C(F)(F)F)c2)n1 [Example 257, (R)—N^1-[4-(3-aminopiperidin-1-yl)-6-propylpyrimidin-2-yl]-3-(trifluoromethyl)benzene-1,4-diamine] | 0.042 |
| CCCc1cc(N2CCOCC2)nc(Nc2ccc3cc[nH]c3c2)n1 [Example 77, N-(4-morpholino-6-propylpyrimidin-2-yl)-1H-indol-6-amine] | 0.084 |
| CCCc1cc(N2CCCCC2CC)nc(Nc2cnc3ccccc3c2)n1 (centres unmarked) [Example 114, N-[4-(2-ethylpiperidin-1-yl)-6-propylpyrimidin-2-yl]quinolin-3-amine] | 0.31 |
| CCCCc1cc(N2CCC[C@@H](N)C2)nc(Nc2ccc(F)c(C(F)(F)F)c2)n1 [Example 348, (R)-4-(3-aminopiperidin-1-yl)-6-butyl-N-[4-fluoro-3-(trifluoromethyl)phenyl]pyrimidin-2-amine] | 0.102 |
| CCCCCN[C@@H]1CCCN(c2cc(CCCC)nc(Nc3ccc(C)c(C#N)c3)n2)C1 [Example 301, (R)-5-({4-butyl-6-[3-(pentylamino)piperidin-1-yl]pyrimidin-2-yl}amino)-2-methylbenzonitrile] | 0.019 |
| CCCc1cc(N2CCC[C@H](NCc3cc(C)c(C)o3)C2)nc(Nc2ccc(C)c(C#N)c2)n1 [Example 161, (S)-5-(4-{3-[(4,5-dimethylfuran-2-ylmethyl)amino]piperidin-1-yl}-6-propylpyrimidin-2-ylamino)-2-methylbenzonitrile] | 0.148 |
| CCCCc1cc(N2CCC[C@@H](N)C2)nc(Nc2ccc(C)c(C(F)(F)F)c2)n1 [Example 343, (R)-4-(3-aminopiperidin-1-yl)-6-butyl-N-[4-methyl-3-(trifluoromethyl)phenyl]pyrimidin-2-amine] | 0.034 |
| CCCc1cc(N2CCC[C@H](NCC(C)C)C2)nc(Nc2ccc(C)c(C#N)c2)n1 [Example 156, (S)-5-{4-[3-(isobutylamino)piperidin-1-yl]-6-propylpyrimidin-2-ylamino}-2-methylbenzonitrile] | 0.066 |

The next compounds have a lower EC50 than those just listed; values first:

| EC50 [nM] | SMILES |
| --- | --- |
| 0.014 | CCCCc1cc(N2CCC[C@@H](NC(C)=O)C2)nc(Nc2ccc(F)c(N)c2)n1 [Example 241, (R)—N-{1-[2-(3-amino-4-fluorophenylamino)-6-butylpyrimidin-4-yl]piperidin-3-yl}acetamide] |
| 0.0032 | CCCc1cc(N2CCC[C@@H](NC)C2)nc(Nc2cc(N)cc(C(F)(F)F)c2)n1 [Example 284, (R)—N^1-[4-(3-methylaminopiperidin-1-yl)-6-propylpyrimidin-2-yl]-5-(trifluoromethyl)benzene-1,3-diamine] |
| 0.0041 | CCCc1cc(N2CCC[C@@H](NCC)C2)nc(Nc2cc(N)cc(C(F)(F)F)c2)n1 [Example 290, (R)—N^1-[4-(3-ethylaminopiperidin-1-yl)-6-propylpyrimidin-2-yl]-5-(trifluoromethyl)benzene-1,3-diamine] |
| 0.0034 | CCCc1cc(N2CCCC(NC(C)=O)C2)nc(Nc2ccc(N)c([N+](=O)[O-])c2)n1 (centres unmarked) [Example 275, N-{1-[2-(4-amino-3-nitrophenylamino)-6-propylpyrimidin-4-yl]piperidin-3-yl}acetamide] |
| 0.0037 | CCCCc1cc(N2CCC[C@@H](NC(C)=O)C2)nc(Nc2ccc(N)c([N+](=O)[O-])c2)n1 [Example 232, (R)—N-{1-[2-(4-amino-3-nitrophenylamino)-6-butylpyrimidin-4-yl]piperidin-3-yl}acetamide] |
| 0.0072 | CCCc1cc(N2CCC[C@@H](N)C2)nc(Nc2ccc(C)c(C(F)(F)F)c2)n1 [Example 263, (R)-4-(3-aminopiperidin-1-yl)-N-[4-methyl-3-(trifluoromethyl)phenyl]-6-propylpyrimidin-2-amine] |
| 0.0082 | CCCc1cc(N2CCC[C@@H](NC(C)=O)C2)nc(Nc2ccc(C)c(C#N)c2)n1 [Example 220, (R)—N-{1-[2-(3-cyano-4-methylphenylamino)-6-propylpyrimidin-4-yl]piperidin-3-yl}acetamide] |
| 0.017 | CCCCc1cc(N2CCC[C@@H](NC)C2)nc(Nc2ccc(C)c(C(F)(F)F)c2)n1 [Example 332, (R)-4-butyl-N-[4-methyl-3-(trifluoromethyl)phenyl]-6-[3-(methylamino)piperidin-1-yl]pyrimidin-2-amine] |
| 0.01 | CCCc1cc(N2CCC[C@@H](NC(C)=O)C2)nc(Nc2cc(N)cc(C(F)(F)F)c2)n1 [Example 278, (R)—N-(1-{2-[3-amino-5-(trifluoromethyl)phenylamino]-6-propylpyrimidin-4-yl}piperidin-3-yl)acetamide] |
| 0.011 | CCCCc1cc(N2CCC[C@@H](NC(C)=O)C2)nc(Nc2cccc(C#N)c2)n1 [Example 272, (R)—N-{1-[6-butyl-2-(3-cyanophenylamino)-pyrimidin-4-yl]-piperidin-3-yl}-acetamide hydrochloride] |
| 0.0035 | CCCc1cc(N2CCC[C@@H](NCC3CC3)C2)nc(Nc2ccc(N)c([N+](=O)[O-])c2)n1 [Example 228, (R)—N^1-{4-[3-(cyclopropylmethylamino)piperidin-1-yl]-6-propylpyrimidin-2-yl}-3-nitrobenzene-1,4-diamine] |
| 0.013 | CCCc1cc(N2CCC[C@@H](NCC3CC3)C2)nc(Nc2ccc(C)c(C#N)c2)n1 [Example 217, (R)-5-{4-[3-(cyclopropylmethylamino)piperidin-1-yl]-6-propylpyrimidin-2-ylamino}-2-methylbenzonitrile] |
| 0.0066 | CCCCc1cc(N2CCC[C@@H](NC)C2)nc(Nc2ccc(F)c(N)c2)n1 [Example 317, (R)—N^1-{4-butyl-6-[3-(methylamino)piperidin-1-yl]pyrimidin-2-yl}-4-fluorobenzene-1,3-diamine] |
| 0.004 | CCCc1cc(N2CCC[C@@H](NC)C2)nc(Nc2ccc(Cl)c(N)c2)n1 [Example 307, (R)-4-chloro-N^1-{4-[3-(methylamino)piperidin-1-yl]-6-propylpyrimidin-2-yl}benzene-1,3-diamine] |
| 0.0087 | CCCN[C@@H]1CCCN(c2cc(CCC)nc(Nc3ccc(C)c(C#N)c3)n2)C1 [Example 206, (R)-5-{4-[3-(propylamino)piperidin-1-yl]-6-propylpyrimidin-2-ylamino}-2-methylbenzonitrile] |
| 0.0083 | CCCCc1cc(N2CCC[C@@H](NC(C)=O)C2)nc(Nc2ccc(N)c(C(F)(F)F)c2)n1 [Example 238, (R)—N-{1-[2-(4-amino-3-trifluoromethylphenylamino)-6-butylpyrimidin-4-yl]piperidin-3-yl}acetamide] |
| 0.009 | CCCCc1cc(N2CCC[C@@H](NC(C)=O)C2)nc(Nc2ccc(C)c([N+](=O)[O-])c2)n1 [Example 233, (R)—N-{1-[6-butyl-2-(4-methyl-3-nitrophenylamino)pyrimidin-4-yl]piperidin-3-yl}acetamide] |
